US12428428B2, “Tricyclic tetrahydroisoquinoline derivative, preparation method therefor and application thereof in medicine” (JIANGSU HENGRUI MEDICINE CO., LTD., priority 2020, dated 2025)

Key:
Type in all cases: cell-based
ERα = ERα (Homo sapiens (Human), UniProt P03372); assay: Degradation of ERα in MCF-7 cells (ELISA); settings: for Dmax at 3 µM: MCF7, read-out: Emax degradation (%); for DC50: MCF-7 cells, 16 to 18 h, read-out: EC50 (nM), degradation of ERα
Procedure: ERα-positive breast cancer cell line MCF-7 cells were cultured in a DMEM/F12 medium (HyClone, SH30023.01) containing 10% fetal bovine serum (Corning, 35-010-CV). […] The following day the compounds were serially diluted with DMSO and further diluted with the phenol red-free DMEM/F12 medium containing 5% charcoal-stripped fetal bovine serum. 20 μL of a diluted compound was added to each well of the 48-well plate at final concentrations of 3000, 300, 30, 3, 0.3, 0.03 and 0.003 nM. The 48-well plate was placed in the incubator for 16 to 18 h. A 96-well plate was coated with the capture antibody from the human ERα/NR3A1 total protein assay kit (R&D, DYC5715-5). […] The plate was placed in an incubator at 26° C. overnight. On day 3, the antibody-coated 96-well plate was washed once with PBS, and 200 μL of PBS containing 1% BSA was added to each well. The plate was incubated in an incubator at 37° C. for 1.5 h to be blocked. The cell culture medium supernatant was discarded. The cells were washed once with PBS, and 60 μL of a cell lysis buffer was added to each well. […] The cells were lysed on ice for 15 min, and 300 μL of PBS containing 1 mM EDTA and 0.5% TritonX-100 was added to each well to dilute the urea to 1 M. The blocking buffer in the blocked 96-well plate was discarded, and 100 μL of diluted cell lysis buffer was added to each well. The plate was incubated in an incubator at 37° C. for 2 h and washed 5 times with PBS. A biotinylated assay antibody was diluted to 0.4 μg/mL with PBS containing 1% BSA, and then 100 μL of the assay antibody was added to each well. The plate was incubated in an incubator at 37° C. for 1 h. The plate was then washed five more times, and 100 μL of avidin-HRP diluted 200-fold with PBS containing 1% BSA was added to each well. The plate was incubated at 37° C. for 30 min. The plate was washed five more times, and 100 μL of TMB substrate was added to each well. The plate was incubated at room temperature until blue color appeared, and 100 μL of stop solution was added to each well. OD450 signal values were read using a PHERAstar multi-mode microplate reader. The IC50 values for the inhibitory activity of the compounds were calculated using Graphpad Prism software.

ER (estrogen receptor) = ER (estrogen receptor) (Homo sapiens (Human), UniProt P03372); assay: Inhibition of binding of E to ER (MCF-7/ERE-luciferase reporter cells); settings: MCF-7/ERE-luciferase cells, 0.1 nM estradiol, 24 h
ER (estrogen receptor), sequence (P03372 whole entry): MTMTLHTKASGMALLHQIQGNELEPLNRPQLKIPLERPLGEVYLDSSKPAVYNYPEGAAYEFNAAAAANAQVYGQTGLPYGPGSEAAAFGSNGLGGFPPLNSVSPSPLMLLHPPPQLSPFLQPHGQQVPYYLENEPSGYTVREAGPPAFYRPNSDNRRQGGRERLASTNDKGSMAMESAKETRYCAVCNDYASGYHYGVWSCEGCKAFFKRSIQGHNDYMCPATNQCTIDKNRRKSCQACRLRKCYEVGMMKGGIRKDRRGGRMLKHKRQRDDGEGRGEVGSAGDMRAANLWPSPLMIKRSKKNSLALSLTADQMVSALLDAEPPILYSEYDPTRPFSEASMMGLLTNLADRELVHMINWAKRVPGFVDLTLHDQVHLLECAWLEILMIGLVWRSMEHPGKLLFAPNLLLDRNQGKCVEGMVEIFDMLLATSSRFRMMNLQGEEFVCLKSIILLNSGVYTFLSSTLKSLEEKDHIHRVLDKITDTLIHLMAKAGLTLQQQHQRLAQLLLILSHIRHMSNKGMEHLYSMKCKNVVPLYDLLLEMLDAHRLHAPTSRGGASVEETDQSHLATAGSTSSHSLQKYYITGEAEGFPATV
Procedure: The compounds of the present disclosure can inhibit the binding of E (estrogen) to ER (estrogen receptor), thereby blocking the binding of the complex of E and ER to ERE (estrogen response element), and consequently the expression of downstream luciferase proteins. The inhibitory effects of the compounds of the present disclosure on the binding of E to ER was tested by using the following method.
An ERE was cloned upstream of the luciferase gene, and MCF-7/ERE-luciferase monoclonal cells were selected by transfection of MCF-7 (TCHu74, National Collection of Authenticated Cell Cultures). The MCF-7/ERE-luciferase cells were seeded into a 96-well plate with an MEM (hyclone, SH30024.01B) medium containing 10% charcoal stripped FBS (Moregate, FBSF), 1% sodium pyruvate (sigma, S8636), 1% non-essential amino acids (sigma, M7145) and 500 μg/mL G418 at a density of 30,000 cells/well and cultured at 37° C. with 5% CO2. 20 mM stock solutions of the drugs are prepared, serially diluted 10-fold with 100% DMSO, and then diluted 20-fold with the medium. After the cells were cultured for 24 h, the medium was removed. 0.1 nM estradiol (sigma, E2758) and 10 μL of a medium-diluted drug were added to each well, and DMSO was added to the control group. The mixtures were well mixed by gentle shaking. The cells were cultured in an incubator at 37° C. with 5% CO2 for 24 h, and then the cell culture liquid was removed, followed by the addition of 50 μL of a luciferase substrate (Promega, E6110) to each well. The plate was let stand at room temperature in the dark for 10-15 min, and the chemiluminescence signal values were determined.
The inhibitory effects of the compounds of the present disclosure on the binding of E to ER were tested through the above experiment. The chemiluminescence signal value was plotted against the compound concentration (in log form) using Graphpad Prism, and the IC50 values of the compounds were obtained.

MCF-7 cells = assay: Inhibition of proliferation of MCF-7 cells (ATP method, Cell Titer-Glo); settings: Homo sapiens, MCF7; MCF-7 cells, 72 h
Procedure: This experiment was intended to test the inhibitory effects of the compounds disclosed herein on the proliferation of MCF-7 Cells by using the ATP method, and to evaluate the in vitro activity of the compounds according to the IC50 values.
MCF-7 cells (TCHu74, National Collection of Authenticated Cell Cultures) were seeded into a 96-well plate with an MEM (hyclone, SH30024.01B) medium containing 10% FBS (Gibco, 10099-141), 1% sodium pyruvate (sigma, 58636) and 1% non-essential amino acid (sigma, M7145) at a density of 4,000 cells/well and cultured at 37° C. with 5% CO2. 20 mM stock solutions of the compounds are prepared, serially diluted with 100% DMSO to a final concentration of 1000×, and then diluted 20-fold with a medium containing 2% FBS. After the cells were cultured for 24 h, the medium was removed. 90 μL of the medium containing 2% FBS and 10 μL of a drug were added to each well, and 10 μL of DMSO was added to the control group. The mixtures were well mixed by gentle shaking. The blank group contained only 100 μL of the medium containing 2% FBS. The cells were cultured in an incubator at 37° C. with 5% CO2 for 72 h, and then 50 μL of mixed Cell Titer-Glo (Promega, G7571) was added to each well. The mixtures were well mixed by shaking and let stand at room temperature for 10 min, and the chemiluminescence signal values were determined.
The chemiluminescence signal value was plotted against the compound concentration (in log form) using Graphpad Prism, and the IC50 values of the compounds were obtained.

ERα, sequence (P03372 whole entry): as above

Dmax at 3 µM (ERα)	DC50 (ERα)	IC50 (ER (estrogen receptor))	IC50 (MCF-7 cells)	Structure (SMILES)
104%	1.24 nM	0.43 nM	0.44 nM	C[C@@H]1Cc2cc3c(cc2[C@@H](c2ccc(NC4CN(CCCF)C4)cn2)N1CC(F)(F)F)OCO3 [Example 17, N-(1-(3-fluoropropyl)azetidin-3-yl)-6-((5S,7R)-7-methyl-6-(2,2,2-trifluoroethyl)-5,6,7,8-tetrahydro-[1,3]dioxolo[4,5-g]isoquinolin-5-yl)pyridin-3-amine]
106%	0.1 nM	0.07 nM	0.07 nM	C[C@@H]1Cc2cc3c(cc2[C@@H](c2ccc(NC4CN(CCCF)C4)cc2)N1CC(F)(F)CO)OCO3 [Example 18, 2,2-Difluoro-3-((5R,7R)-5-(4-((1-(3-fluoropropyl)azetidin-3-yl)amino)phenyl)-7-methyl-7,8-dihydro-[1,3]dioxolo[4,5-g]isoquinolin-6(5H)-yl)propan-1-ol]
100%	0.13 nM	0.07 nM	0.07 nM	[2H]C1([2H])Oc2cc3c(cc2O1)[C@@H](c1ccc(N[C@H]2CCN(CCCF)C2)cc1)N(CC(F)(F)CO)[C@H](C)C3 [Example 19, 2,2-Difluoro-3-((5R,7R)-5-(4-(((S)-1-(3-fluoropropyl)pyrrolidin-3-yl)amino)phenyl)-7-methyl-7,8-dihydro-[1,3]dioxolo[4,5-g]isoquinolin-6(5H)-yl-2,2-d2)propan-1-ol]
